Measured values: patent US4322339A, “Pharmacologically active peptides” (Eli Lilly and Company, priority 1980, dated 1982)

Tests used:
mouse (Cox Standard) = assay: mouse hot plate test (mouse jump); type: in vivo; conditions: subcutaneous injection, hot plate 52° C., 15 minutes after administration
enkephalin (δ) receptor = biological target: T1, enkephalin (δ) receptor (Mus musculus, UniProt P32300); assay: mouse vas deferens assay; type: tissue-based; conditions: concentration causing depression of 50% of the electrically evoked contraction; field stimulation 0.15 Hz, 1 msec., 40 V; 37° C.
T1 construct: from tissue; host or cells: isolated mouse vas deferens (Cox mice, 30-40 g)
Procedure: In the mouse vas deferens test, single mouse vas deferens from mature mice (Cox, 30-40 g.) are suspended in 3 ml. of modified Kreb's solution aerated with 95% O2 -5% CO2 and maintained at 37° C. The twitch induced by field stimulation (0.15 Hz, 1 msec., 40 V) is recorded on a polygraph via an isometric transducer. The test compound is added to the bath in 20 to 30 μl. aliquots. A dose-response curve is constructed by cumulative addition of appropriate amounts of the compound to the bath. Comparison of relative agonist potency at the δ receptor is made on the basis of IC50 values (concentration causing depression of 50% of the electrically evoked contraction).

T1 sequence (P32300 whole entry): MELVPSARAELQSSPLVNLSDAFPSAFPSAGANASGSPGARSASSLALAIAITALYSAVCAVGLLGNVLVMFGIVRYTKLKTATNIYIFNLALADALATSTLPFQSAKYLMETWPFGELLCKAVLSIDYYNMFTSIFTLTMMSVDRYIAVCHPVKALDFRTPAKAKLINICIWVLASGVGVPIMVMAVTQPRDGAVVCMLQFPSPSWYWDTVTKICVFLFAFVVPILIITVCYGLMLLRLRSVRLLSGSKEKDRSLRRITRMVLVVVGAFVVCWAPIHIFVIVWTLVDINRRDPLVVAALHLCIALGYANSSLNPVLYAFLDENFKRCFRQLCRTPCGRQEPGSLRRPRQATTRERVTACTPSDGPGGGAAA

Compound	Mouse Jump ED50 (mouse (Cox Standard); Cox Standard mice)	IC50 (enkephalin (δ) receptor)	Mouse Jump ED50 (mouse (Cox Standard); run using Harlan ND4 mice)
CSCC[C@@H](C(N)=O)N(C)C(=O)[C@H](Cc1cccc(Cl)c1)NC(=O)CNC(=O)[C@@H](C)NC(=O)[C@@H](N)Cc1ccc(O)cc1 [Cl, L-Tyrosyl-D-alanyl-glycyl-L-m-chlorophenylalanyl-L-(N^α -methyl)methioninamide]	0.11 mg/kg	0.71 nM	–
CSCC[C@@H](C(N)=O)N(C)C(=O)[C@H](Cc1ccccc1)NC(=O)CNC(=O)[C@@H](C)NC(=O)[C@@H](N)Cc1ccc(O)cc1 [H, reference compound]	0.36 mg/kg	12.2 nM	–
COc1cccc(C[C@H](NC(=O)CNC(=O)[C@@H](C)NC(=O)[C@@H](N)Cc2ccc(O)cc2)C(=O)N(C)[C@@H](CCSC)C(N)=O)c1 [OMe, L-Tyrosyl-D-alanyl-glycyl-L-m-methoxyphenylalanyl-L-(N^α -methyl)methioninamide]	–	2.92 nM	0.15 mg/kg
CSCC[C@@H](C(N)=O)N(C)C(=O)[C@H](Cc1cccc(C(F)(F)F)c1)NC(=O)CNC(=O)[C@@H](C)NC(=O)[C@@H](N)Cc1ccc(O)cc1 [CF3, L-Tyrosyl-D-alanyl-glycyl-L-m-trifluoro-methylphenylalanyl-L-(N^α-methyl)methioninamide]	0.33 mg/kg	1.78 nM	–
CSCC[C@@H](C(N)=O)N(C)C(=O)[C@H](Cc1cccc(Br)c1)NC(=O)CNC(=O)[C@@H](C)NC(=O)[C@@H](N)Cc1ccc(O)cc1 [Br, L-Tyrosyl-D-alanyl-glycyl-L-m-bromophenylalanyl-L-(N^α -methyl)methioninamide]	0.36 mg/kg	0.49 nM	–
CSCC[C@@H](C(N)=O)N(C)C(=O)[C@H](Cc1cccc(I)c1)NC(=O)CNC(=O)[C@@H](C)NC(=O)[C@@H](N)Cc1ccc(O)cc1 [I, H-L-Tyr-D-Ala-Gly-L-Phe(I)-L-(N-Me)Met-NH2]	–	2.1 nM	–
CSCC[C@@H](C(N)=O)N(C)C(=O)[C@H](Cc1cccc(C)c1)NC(=O)CNC(=O)[C@@H](C)NC(=O)[C@@H](N)Cc1ccc(O)cc1 [CH3, L-Tyrosyl-D-alanyl-glycyl-L-m-methylphenylalanyl-L-(N^α -methyl)methioninamide]	0.33 mg/kg	2.73 nM	–
